Literature values as cited in US20100210586A1, “POMEGRANATE EXTRACTS, NUTRITIONAL PRODUCTS CONTAINING THEM AND THEIR USES” (PROBELTE PHARMA, S.A., priority 2007, published 2010).

Details: oral

O=c1oc2c(O)c(O)cc3c(=O)oc4c(O)c(O)cc1c4c23 [ellagic acid]
absorption when administered orally: poorly absorbed
